{
  "source": "the NIST ThermoML archive (doi:10.1021/je300111m)",
  "conditions": "Liquid",
  "note": "“And” between values parts separate entries of the source, which are not always exact repeats. Equal entries are not always repeated. ± gives the expanded uncertainty stated by the source.",
  "data": [
    {"smiles": "CCCC", "note": "[butane]", "values": [
      {"measurement": "vapor or sublimation pressure", "setting": "243.03 K", "result": "29.1 ± 0.5", "unit": "kPa"},
      {"measurement": "vapor or sublimation pressure", "setting": "293.38 K", "result": "210.8 ± 3.5", "unit": "kPa"}
    ]},
    {"smiles": "S", "note": "[hydrogen sulfide]", "values": [
      {"measurement": "vapor or sublimation pressure", "setting": "222.83 K", "result": "167.3 ± 2.8", "unit": "kPa"},
      {"measurement": "vapor or sublimation pressure", "setting": "243.02 K", "result": "384 ± 6.2", "unit": "kPa"},
      {"measurement": "vapor or sublimation pressure", "setting": "243.18 K", "result": "380.2 ± 6.2", "unit": "kPa"},
      {"measurement": "vapor or sublimation pressure", "setting": "243.2 K", "result": "379.4 ± 6.2", "unit": "kPa"},
      {"measurement": "vapor or sublimation pressure", "setting": "273.12 K", "result": "1030.2 ± 17", "unit": "kPa"},
      {"measurement": "vapor or sublimation pressure", "setting": "273.13 K", "result": "1029.3 ± 17", "unit": "kPa"},
      {"measurement": "vapor or sublimation pressure", "setting": "293.43 K", "result": "1793.7 ± 29", "unit": "kPa"}
    ]},
    {"smiles": "CCC", "note": "[propane]", "values": [
      {"measurement": "vapor or sublimation pressure", "setting": "243.23 K", "result": "168 ± 2.8 kPa and 168.2 ± 2.8 kPa"},
      {"measurement": "vapor or sublimation pressure", "setting": "273.12 K", "result": "473.5 ± 7.7", "unit": "kPa"}
    ]}
  ]
}
